The structures appear in SMILES notation.

Data set [1] concerns the target T1, CHOK1 cells engineered to overexpress human CCR2 (Homo sapiens, UniProt P41597).
T1 construct: expressed in transfected cells; host or cells: CHOK1 cells
Description: Antibody dependent cellular cytotoxicity (ADCC) reporter assay. The data set is classed as cell-based. Conditions: with anti-cotinine antibody (SEQ ID NO: 11/12, human IgG1 Fc S239D/I332E); Jurkat FcγRIIIa NFAT-luciferase reporter cells; 12-18 hours; average if more than one run; read-out: ADCC Reporter Assay pEC50 (converted). The protocol:
An antibody dependent cellular cytoxocity reporter assay was conducted using the following four assay components: (i) ARM compound of Formula (I) targeting CCR2 (concentrations ranging from 1 pM to 10 μM) (ii) anti-cotinine antibody having a heavy chain sequence of SEQ ID NO: 11 and a light chain sequence of SEQ ID NO: 12 (rabbit variable region with human IgG1 Fc domain containing a DE mutation (S239D/I332E)) (concentrations ranging from 0.01 μg/mL to 200 μg/mL); (iii) target cells: CHOK1 cells engineered to overexpress either human CCR2 (typically 1000-20,000 cells perwell) and (iv) reporter cells: Jurkat cells engineered to express FcγRIIIa with the reporter gene luciferase under the control of the NFAT promoter (typically 3000-75,000 cells per well). Reagents were combined in a final volume of 20 μL in a 384—well tissue culture treated plate. All four assay components were incubated together for about 12-18 hours. Thereafter, BioGlo Detection reagent (Promega) was added to the wells to lyse the cells and provide a substrate for the luciferase reporter protein. Luminescence signal was measured on a microplate reader and signal:background was calculated by dividing the signal of a test well by the signal obtained when no ARM compound of Formula (I) was added. EC50 calculations were done using Graphpad Prism Software, specifically a nonlinear regression curve fit (Y=Bottom+(Top−Bottom)/(1+10 ^((Log EC50−X)*HillSlope))).
ARMs compounds of Formula (I) of the invention were tested for ADCC activity in the above assay in or more experimental runs and the results are shown in Table 3 below. Potency of the compounds of Formula (I) of the invention is reported as a pEC50 value. The pEC50 value is the negative log of the EC50 value, wherein the EC50 value is the half maximal effective concentration measured in molar (M). For compounds tested in more than one experimental run, the pEC50 value is reported as an average.
Background: In a reporter assay the amount or activity of a reporter protein is the signal.

The test system of data set [2] is CCR2 expressing cells (CD11b+Ly6c+Hi monocytes). Description: In vivo depletion assay (flow cytometry of peripheral blood). Also on record: species or system human CCR2 (hCCR2) knock-in mice. The conditions noted are these: IV bolus 0.1 mpk compound + 10 mpk anti-cotinine antibody (mouse IgG2a Fc), 48 hours. The protocol:
(§1) Human CCR2 (hCCR2) knock-in mice (C57 background) were dosed intravenously with a PBS solution containing a compound of Formula (I) to measure depletion of CCR2 expressing cells in peripheral blood. Peripheral blood from IV dosed mice was also analyzed to determine PK properties of the compounds of Formula (I).
Formulations preparation: On the day of experiment, the stock solution of the compound of Formula (I) was removed from storage at −20° C. and thawed at room temperature. Anti-cotinine antibody having a heavy chain sequence of SEQ ID NO: 13 and a light chain sequence of SEQ ID NO: 14 (rabbit variable region sequence with mouse IgG2a Fc domain), if required was removed from storage at −80° C. and thawed at room temperature. Antibody vials were immediately transferred into wet ice after thawing. Compounds of Formula (I) were further diluted in DMSO as per experimental requirements.
Formulation composition: The formulation composition was Saline: DMSO: PBS. Saline was added based on the quantity required and then stock solution of the compound of Formula (1) prepared in DMSO, followed by addition of antibody in PBS. Formulations were incubated at room temperature for 30 minutes before administration to the mouse. DMSO was used at 1 to 2% (v/v) in the final formulation.
(§2) Administration to Animal: Solution formulation of antibody and compound of Formula (I) was injected (bolus injection) to the restrained mouse in the right/left lateral tail vein. Animals were dosed with 0.1 milligram per kilogram (mpk) of the compound of Formula (I) and 10 mpk of the anti-cotinine antibody.
(§3) Terminal bleeding at end of experiment (48 hr): Approximately 250 μL of blood in K2EDTA tube and approximately 250 μL of blood in SST (serum separation tube) was collected from each mouse through retro-orbital bleeding under deep isoflurane anesthesia. After bleeding, each mouse was sacrificed by cervical dislocation. The blood distribution at termination was determined as follows: • For PK: 50 μL of K2EDTA blood was transferred to another tube for PK • Flow cytometry: Remaining blood (˜200 μL) was used for flow cytometry analysis. • For serum collection: serum separator tubes (BD) were centrifuged at 4° C., 5000 rpm for 15 minutes. Approximately 100 μL serum was separated and stored at −80° C. for further usage. • Blood drug concentration: Samples collected at the various timepoints (0.25 hr, 2 hr, 24 and 48 hr) were analyzed to determine blood drug concentration.
Flow cytometry analysis: CCR2 depletion in peripheral blood was determined by flow cytometry. Briefly, peripheral blood was collected from all animals at the end of study termination and processed. […]
Percent depletion of CD11b+Ly6c+Hi cells and CCR2 expression for the different treatment groups was determined. […]

A short description of data set [3]: Blood drug concentration analysis (PK) in the in vivo depletion assay. Also on record: species or system human CCR2 (hCCR2) knock-in mice. The conditions noted are these: human CCR2 (hCCR2) knock-in, C57 background, mouse, whole blood, LC-MS/MS, IV bolus 0.1 mpk compound + 10 mpk anti-cotinine antibody, 48 hours post-dose, read-out: Exposure of Compound of Formula (I) 48 hours post-dose. The method, then:
as §1, §2
Collection of Blood for PK: Blood was collected at time points 0.25 hour, 2 hours, and […] following administration (50 μL/time point) through retro-orbital bleeding under mild isoflurane anesthesia.
as §3
Blood drug concentration analysis: Drug concentration in blood samples was determined by an LC-MS/MS-based bioanalytical method developed at Syngene. Samples were analyzed on Q-Trap, API-5500 LC-MS/MS system coupled with Exion UHPLC system from SCIEX, USA operated in multiple reaction monitoring mode employing electrospray ionization technique in positive polarity. Analyte and internal standard peaks were resolved on Synergi Polar, 75×2.0 mm, 4 μcolumn using mobile phase 10 mM Ammonium acetate in Milli-Q water as phase A and 0.1% Formic acid in acetonitrile as Phase B. Gradient elution was performed with initial composition 95% Phase A at 0.0 min, holding it for 0.2 minutes, ramping to 5% by 1.0 minute, keeping the same for next 0.5 minutes and coming back to 95% by 1.6 minutes. The total run time was 2 minutes.
Working dilutions for calibration curve and quality control standards were prepared by serially diluting 20 mg/mL stock solution with DMSO. Spiked concentrations for calibration curve in the whole blood ranged from 1 ng/mL to 1000 ng/mL. […]

Regarding `CC(=O)N[C@@H]1C[C@H](NC(C)(C)C)CC[C@@H]1N1CC[C@H](Nc2nc(CCCNC(=O)[C@H]3CC[C@H](NC(=O)CCCO[C@H]4CC[C@H](OCCNC(=O)[C@H]5CC(=O)N(C)[C@@H]5c5cccnc5)CC4)CC3)nc3ccc(C(F)(F)F)cc23)C1=O` [Example 1, (2S,3S)—N-(2-(((1R,4S)-4-(4-(((1S,4R)-4-((3-(4-(((S)-1-((1S,2R,4R)-2-Acetamido-4-(tert-butylamino)cyclohexyl)-2-oxopyrrolidin-3-yl)amino)-6-(trifluoromethyl)quinazolin-2-yl)propyl)carbamoyl)cyclohexyl)amino)-4-oxobutoxy)cyclohexyl)oxy)ethyl)-1-methyl-5-oxo-2-(pyridin-3-yl)pyrrolidine-3-carboxamide], the EC50 in data set [1] is 0.158 nM. Besides, the “% Depletion of CCR2 expressing cells” value in data set [2] was found to be 89.18%. For the same compound, in data set [3], the concentration at 48 h was 42.9 ng/mL.

(Values after patent US20250057958A1, “CYTOTOXICITY TARGETING CHIMERAS FOR CCR2-EXPRESSING CELLS” (GLAXOSMITHKLINE INTELLECTUAL PROPERTY DEVELOPMENT LIMITED, priority 2022, published 2025).)
